From BigSolDB 2.1

COc1ccc(OC)c(N)c1
Conditions	solubility (mole fraction)
in 1-methoxy-2-propanol, 276.6 K	0.0204
in 1-methoxy-2-propanol, 279.7 K	0.0255
in 1-methoxy-2-propanol, 282.8 K	0.0306
in 1-methoxy-2-propanol, 285.9 K	0.0382
in 1-methoxy-2-propanol, 289 K	0.0512
in 1-methoxy-2-propanol, 292.1 K	0.0675
in 1-methoxy-2-propanol, 295.2 K	0.0867
in 1-methoxy-2-propanol, 298.3 K	0.11
in 1-methoxy-2-propanol, 301.6 K	0.14
in 1-methoxy-2-propanol, 305.1 K	0.174
in 1-methoxy-2-propanol, 310.4 K	0.211
in 1-methoxy-2-propanol, 314.7 K	0.239
in 1-methoxy-2-propanol, 318.8 K	0.281
in 1-methoxy-2-propanol, 322.9 K	0.323
in 2-ethoxyethanol, 276.7 K	0.0186
in 2-ethoxyethanol, 279.8 K	0.0238
in 2-ethoxyethanol, 282.9 K	0.029
in 2-ethoxyethanol, 286 K	0.0369
in 2-ethoxyethanol, 289.1 K	0.0481
in 2-ethoxyethanol, 292.2 K	0.0635
in 2-ethoxyethanol, 295.3 K	0.0834
in 2-ethoxyethanol, 298.4 K	0.106
in 2-ethoxyethanol, 301.6 K	0.135
in 2-ethoxyethanol, 304.7 K	0.165
in 2-ethoxyethanol, 308.9 K	0.199
in 2-ethoxyethanol, 313 K	0.231
in 2-ethoxyethanol, 317.1 K	0.262
in 2-ethoxyethanol, 321.4 K	0.311
in 2-ethoxyethanol, 325.5 K	0.371
in 2-methoxyethanol, 276.4 K	0.0331
in 2-methoxyethanol, 280.5 K	0.046
in 2-methoxyethanol, 284.6 K	0.0617
in 2-methoxyethanol, 288.7 K	0.0819
in 2-methoxyethanol, 292.8 K	0.102
in 2-methoxyethanol, 296.9 K	0.123
in 2-methoxyethanol, 301 K	0.15
in 2-methoxyethanol, 305.1 K	0.185
in 2-methoxyethanol, 309.2 K	0.217
in 2-methoxyethanol, 313.4 K	0.254
in 2-methoxyethanol, 316.6 K	0.292
in diethylene glycol, 276.7 K	0.00015
in diethylene glycol, 280.9 K	0.000379
in diethylene glycol, 285 K	0.000611
in diethylene glycol, 289.1 K	0.000885
in diethylene glycol, 293.2 K	0.00119
in diethylene glycol, 297.3 K	0.00165
in diethylene glycol, 301.4 K	0.00325
in diethylene glycol, 303.5 K	0.00532
in diethylene glycol, 305.6 K	0.00751
in diethylene glycol, 307.7 K	0.015
in diethylene glycol, 309.8 K	0.0248
in diethylene glycol, 311.9 K	0.0458
in diethylene glycol, 314 K	0.0704
in diethylene glycol, 316.1 K	0.104
in diethylene glycol, 318.2 K	0.14
in diethylene glycol, 320.7 K	0.177
in diethylene glycol, 323.7 K	0.216

COc1cc([N+](=O)[O-])c(OC)cc1Cl
Conditions	solubility (mole fraction)
in 1-methoxy-2-propanol, 282.2 K	0.00313
in 1-methoxy-2-propanol, 287.1 K	0.00354
in 1-methoxy-2-propanol, 291.6 K	0.00392
in 1-methoxy-2-propanol, 296 K	0.00428
in 1-methoxy-2-propanol, 300.3 K	0.00466
in 1-methoxy-2-propanol, 304.6 K	0.00648
in 1-methoxy-2-propanol, 309 K	0.00937
in 1-methoxy-2-propanol, 313.1 K	0.0123
in 1-methoxy-2-propanol, 317.2 K	0.0154
in 1-methoxy-2-propanol, 321.3 K	0.0191
in 1-methoxy-2-propanol, 325.7 K	0.0258
in 2-ethoxyethanol, 276.7 K	0.00187
in 2-ethoxyethanol, 280.8 K	0.00226
in 2-ethoxyethanol, 284.9 K	0.00266
in 2-ethoxyethanol, 289.1 K	0.00307
in 2-ethoxyethanol, 293.2 K	0.00347
in 2-ethoxyethanol, 297.3 K	0.00389
in 2-ethoxyethanol, 301.4 K	0.00502
in 2-ethoxyethanol, 305.5 K	0.00638
in 2-ethoxyethanol, 309.6 K	0.00874
in 2-ethoxyethanol, 314 K	0.0139
in 2-ethoxyethanol, 320.6 K	0.0193
in 2-ethoxyethanol, 327.1 K	0.0237
in 2-methoxyethanol, 283.2 K	0.00622
in 2-methoxyethanol, 290.9 K	0.00838
in 2-methoxyethanol, 295.3 K	0.00953
in 2-methoxyethanol, 299.4 K	0.0107
in 2-methoxyethanol, 303.1 K	0.0119
in 2-methoxyethanol, 306.8 K	0.0146
in 2-methoxyethanol, 313 K	0.0177
in 2-methoxyethanol, 317.9 K	0.0201
in 2-methoxyethanol, 321.7 K	0.0226
in 2-methoxyethanol, 325.8 K	0.0282
in 2-methoxyethanol, 329.8 K	0.0335
in diethylene glycol, 282.1 K	0.000239
in diethylene glycol, 286.5 K	0.000275
in diethylene glycol, 290.8 K	0.000321
in diethylene glycol, 296.1 K	0.000364
in diethylene glycol, 301.6 K	0.000402
in diethylene glycol, 306.2 K	0.00048
in diethylene glycol, 310.7 K	0.000573
in diethylene glycol, 315.2 K	0.000717
in diethylene glycol, 319.5 K	0.000876
in diethylene glycol, 323.6 K	0.00109
in diethylene glycol, 327.7 K	0.00136

COc1cc(Cl)c(OC)cc1N
Conditions	solubility (mole fraction)
in 1-methoxy-2-propanol, 277.4 K	0.0208
in 1-methoxy-2-propanol, 281.6 K	0.0267
in 1-methoxy-2-propanol, 289.4 K	0.0327
in 1-methoxy-2-propanol, 294.3 K	0.0369
in 1-methoxy-2-propanol, 298.5 K	0.045
in 1-methoxy-2-propanol, 302.6 K	0.0536
in 1-methoxy-2-propanol, 307.6 K	0.0649
in 1-methoxy-2-propanol, 312.6 K	0.0772
in 1-methoxy-2-propanol, 316.8 K	0.089
in 1-methoxy-2-propanol, 320.9 K	0.101
in 1-methoxy-2-propanol, 326.3 K	0.125
in 2-ethoxyethanol, 278.6 K	0.0282
in 2-ethoxyethanol, 283.5 K	0.0322
in 2-ethoxyethanol, 287.6 K	0.0361
in 2-ethoxyethanol, 291.7 K	0.04
in 2-ethoxyethanol, 295.8 K	0.0453
in 2-ethoxyethanol, 300.3 K	0.0559
in 2-ethoxyethanol, 306.7 K	0.0672
in 2-ethoxyethanol, 310.9 K	0.0785
in 2-ethoxyethanol, 315 K	0.0894
in 2-ethoxyethanol, 319.7 K	0.1
in 2-ethoxyethanol, 323.9 K	0.117
in 2-ethoxyethanol, 328 K	0.138
in 2-methoxyethanol, 277.2 K	0.0282
in 2-methoxyethanol, 281.1 K	0.034
in 2-methoxyethanol, 285.5 K	0.0427
in 2-methoxyethanol, 291.2 K	0.0497
in 2-methoxyethanol, 295.3 K	0.0549
in 2-methoxyethanol, 299.4 K	0.06
in 2-methoxyethanol, 303.6 K	0.0665
in 2-methoxyethanol, 307.7 K	0.0768
in 2-methoxyethanol, 312.1 K	0.0884
in 2-methoxyethanol, 315.7 K	0.0986
in 2-methoxyethanol, 319.6 K	0.112
in 2-methoxyethanol, 324.2 K	0.129
in diethylene glycol, 276.7 K	0.0167
in diethylene glycol, 280.9 K	0.0188
in diethylene glycol, 285.1 K	0.021
in diethylene glycol, 289.4 K	0.0233
in diethylene glycol, 295.5 K	0.0279
in diethylene glycol, 299.6 K	0.0312
in diethylene glycol, 303.8 K	0.0346
in diethylene glycol, 307.9 K	0.0396
in diethylene glycol, 312 K	0.0447
in diethylene glycol, 316.5 K	0.0512
in diethylene glycol, 320.8 K	0.0584
in diethylene glycol, 325.3 K	0.0675
